Assay [1] concerns AML cell lines. The experiment in a line: Cell proliferation MTS assay, panel of AML cell lines. The class given is cell-based. To be noted: Homo sapiens. As for the experimental part:
AML cell lines (5×10^3 cells/well) were seeded in 96-well plates and grown for 24 to 96 h in serum (10%)-containing medium in the presence or absence of inhibitors at the indicated concentrations. Proliferation was analyzed by means of an MTS assay using the CellTiter 96 Aqueous One Solution Cell Proliferation Assay (Promega, Madison, Wis., USA), according to the manufacturer's instructions. Data are mean with standard deviation from three independent experiments in technical triplicates. For the screening of 160 compounds from the UC library, the cell metabolic activity was assessed at 24 hours of treatment of MOLM-13 cells. Top 15 candidates were re-screened at 2 μM, and the cell metabolic activity was determined at 24 hours of treatment. In certain experiments, cell viability was determined by staining the cells with trypan blue at a 1/2 dilution and counting total number of viable cells upon treatment with UC-764864 or DMSO control. The cells were counted daily for 4 days using an automated cell counter (Countess II FL from Life Technologies). […] UC-764864 was added at the indicated concentrations and cells were incubated with drug for 3 days, at which point cell viability was measured by MTS according to manufacturer's instructions.
For orientation: Tetrazolium dyes change colour on reduction, which living cells bring about.

In assay [2] the test system is MOLM-13 cells. The experiment in a line: MOLM-13 xenograft in NSG mice. It is filed as in vivo. To be noted: 2 mg/kg i.p. As for the experimental part: Lentivirally-infected MOLM-13 cells or HL-60 cells (1.9×10^4 cells per recipient) expressing a non-silencing control shRNA or UBE2N specific shRNAs were tail vein transplanted into sublethally irradiated NOD-scid IL2Rγ^−/− (NSG) mice (250 rads whole body irradiation). Moribund mice were sacrificed and assessed for leukemic burden measurements. BM and spleen cells were analyzed for GFP expression by flow cytometry using a BD FACS Canto System (BD Biosciences, San Jose, Calif.). Bone marrow aspirates were taken 2 weeks after transplantation for smears or to assess engraftment by flow cytometry. For survival analysis after UBE2N inhibitors treatment, NSG mice (n=10/group) were injected with 1×10^4 MOLM-13 cells and treated with 4 doses of 2 mg/kg/d of UC-764865, or vehicle control (0.2% tween 20 in water) for 2 weeks (8 doses total). Time of death was recorded, and Kaplan Meier survival analysis was performed using GraphPad Prism version 7.00 for Mac (GraphPad Software, La Jolla Calif. USA). Engraftment was assessed in bone marrow (BM) at one week after transplantation by flow cytometric determination of human CD33 (BDPharmingen 555450, Franklin Lakes, N.J.), human CD45 and/or human CD15. Briefly, mice were euthanized with carbon dioxide following the AVMA Guidelines for the Euthanasia of Animals and BM cells were immediately extracted by breaking the femurs with a mortar and pestle. Red blood cells were lysed with RBC lysis buffer (555899 BD Biosciences) and washed twice with Phosphate-Buffered Saline (PBS) (Dulbecco's 45000-446 (PK)), 2% Fetal Bovine Serum (FBS). 1×10^6 cells were stained with human CD33 (BDPharmighen 555450), murine CD45 (BDPharmighen 557659) by incubating in PBS, 0.2% FBS for 30 minutes on ice in the dark. After staining the cells were washed once with PBS and resuspended in incubation buffer with propidium iodine. Cells were analyzed using a BD FACS Canto System (BD Biosciences, San Jose, Calif.). Alternatively, 1×10^4 MOLM-13 cells were xenotransplanted in NSG mice without conditioning (n=10/group). Treatment with UBE2N inhibitors was started one day after transplant for […] (5 days dosing of 2 mg/kg/d, resting 2 days, 2 days dosing of 2 mg/kg/d) by intraperitoneal injections (IP). All the mice were sacrificed at day 10 post transplantation and engraftment of MOLM-13 cells was analyzed in spleen and BM by staining for human CD15 (BDPharmighen 551376) as described above. For patient-derived xenografts (PDX), 1×106 to 6×10^6 cells were transplanted via tail vain in NSGS mice conditioned with busulfan (final dose of 30 mg/kg) 24 hours prior to transplantation. Treatment with UC-764865 was started 3 days after transplantation with 5 weekly doses of 25 mg/kg UC-764865 or vehicle control (methyl-β-cyclodextrin, 50 mg/ml) via LP during a period of 2-6 weeks. BM aspirates were performed once a week and determination of engraftment was performed as described above.

Like-named read-outs stand apart in the source and are kept apart here.

In general, IC50 refers to the concentration that gives 50% inhibition. `CCc1ccc(C(=O)C=CSc2nc3ccc(C)cc3[nH]2)cc1` [UC-764864, 1-(4-ethylphenyl)-3-[(6-methyl-1H-benzimidazol-2-yl)sulfanyl]prop-2-en-1-one]: the half-maximal inhibitory concentration (IC50) in assay [1] (HL-60, NOMO-1, Kasumi-1, MV4-11, MDSL, read-out: IC50, cell lines with intermediate sensitivity) fell in the range of 4.3 to 6.7 µM; in assay [1] (MOLM-14, MOLM-13, THP-1, SKM-1, read-out: IC50, highly sensitive cell lines), 0.02 to 2.5 µM.

Turning to `COc1ccc(C(=O)C=CSc2nc3ccc(C)cc3[nH]2)cc1` [UC-764865, 1-(4-methoxyphenyl)-3-[(6-methyl-1H-benzimidazol-2-yl)sulfanyl]prop-2-en-1-one], the onset of leukemia in assay [2] (4 doses/week for 2 weeks, vehicle 8 days) is reported as 18 days. Moreover, the overall median survival in assay [2] (4 doses/week for 2 weeks, vehicle 17 days, P<0.0001) came to 21 days. For the same compound, the “reduction of leukemic burden (percent of human CD15+ cells) in BM” value in assay [2] (7 doses, day 10 post transplantation, P=0.03) came to 40%. Further, the “reduction of leukemic burden (percent of human CD15+ cells) in spleen” value in assay [2] (7 doses, day 10 post transplantation, P=0.3) is 70%. Also, the “spleen weight at time of death” value in assay [2] (vehicle 63±29 mg, P=0.0001) stood at 18 ± 6 mg. The “reduction of splenomegaly at time of death” value in assay [2] (vs vehicle) amounted to 80%.
